From publication PMC6650409, “Modeling the binding of diverse ligands within the Ah receptor ligand binding domain” (Scientific Reports, 2019) come the findings set out here.

Structures are written as SMILES. Where a chain is given by its changes, count along the chain named. pIC50: −log10 of the molar value.

In general, pIC50 refers to the negative decadic logarithm of the IC50, by convention in mol/L. Read a high pIC50 as a low IC50.

Assay [1] deals with T1, L302A mutant AhR (Mus musculus, UniProt P30561, L302A).
T1 construct: made in house; host or cells: in vitro transcription/translation (rabbit reticulocyte lysate)
T1 sequence (P30561 10-848 L302A): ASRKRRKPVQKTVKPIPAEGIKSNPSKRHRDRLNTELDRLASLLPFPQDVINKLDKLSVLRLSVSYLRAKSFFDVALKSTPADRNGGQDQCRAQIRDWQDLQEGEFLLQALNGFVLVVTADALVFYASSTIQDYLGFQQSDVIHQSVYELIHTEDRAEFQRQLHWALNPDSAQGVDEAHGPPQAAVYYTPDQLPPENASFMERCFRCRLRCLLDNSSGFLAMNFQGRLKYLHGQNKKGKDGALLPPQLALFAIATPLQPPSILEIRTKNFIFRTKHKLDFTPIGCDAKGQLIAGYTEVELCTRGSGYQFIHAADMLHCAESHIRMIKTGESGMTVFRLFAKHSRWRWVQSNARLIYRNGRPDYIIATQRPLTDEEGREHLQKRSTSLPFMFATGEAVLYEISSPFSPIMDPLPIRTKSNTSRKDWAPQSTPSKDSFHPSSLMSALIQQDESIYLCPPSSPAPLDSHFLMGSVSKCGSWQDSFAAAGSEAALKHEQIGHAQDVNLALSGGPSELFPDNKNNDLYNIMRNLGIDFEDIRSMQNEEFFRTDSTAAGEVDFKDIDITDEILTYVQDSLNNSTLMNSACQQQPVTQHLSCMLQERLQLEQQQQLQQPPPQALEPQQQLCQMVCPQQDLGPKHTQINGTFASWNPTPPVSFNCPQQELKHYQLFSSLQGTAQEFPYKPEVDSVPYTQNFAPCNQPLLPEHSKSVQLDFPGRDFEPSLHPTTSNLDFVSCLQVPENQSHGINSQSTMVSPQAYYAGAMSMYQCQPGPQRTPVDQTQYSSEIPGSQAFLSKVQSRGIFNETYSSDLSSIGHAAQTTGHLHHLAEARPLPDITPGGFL
Kind of assay: AhR DNA binding (gel retardation) assay, L302A mutant AhR. Type of assay: biochemical. The settings on record: L302A mutation; single maximal ligand concentration; in words. How it is done:
Wild-type and mutant mAhRs and mARNT were synthesized in vitro in the presence of unlabeled L-methionine, the resulting mAhRs and mARNT translation mixtures and MEDGK (25 mM MOPS (3-(N-morpholino)propanesulfonic acid; pH 7.5), 1 mM EDTA, 1 mM dithiothreitol, 10% (v/v) glycerol, 150 mM KCl) were mixed in a 1:1:8 (v/v/v) ratio and incubated with DMSO (1% final concentration) or the indicated concentration of TCDD or test chemical for 2 hours at room temperature. An aliquot of each incubation was mixed with [^32P]-labeled double-stranded oligonucleotide containing the mouse AhR DNA binding site DRE3 (a dioxin responsive element from the upstream region of the murine Cyp1a1 gene[71]) and protein-DNA complexes resolved by gel retardation analysis as previously described in detail. Gels were visualized using a FLA9000 Fujifilm Imager and protein-DNA complexes quantitated with Fujifilm MultiGauge software. For potency measurements, reactions were incubated with increasing concentrations of the test chemical and the chemical concentration producing half maximal AhR:ARNT:DRE complex formation (EC50) determined.

In assay [2] the target is T2, M342A mutant AhR (Mus musculus, UniProt P30561, M342A).
T2 construct: made in house; host or cells: in vitro, Promega TNT Quick rabbit reticulocyte lysate
T2 sequence (P30561 10-848 M342A): T1 sequence (P30561 10-848 L302A) with A293L, M333A
Kind of assay: [3H]TCDD competitive ligand binding, M342A mutant AhR. The settings on record: for change of relative binding affinity versus wild-type AhR: M342A substitution, in words; for pIC50: Table S6, AhR mutant M342A. The method, then: The mouse AhR (mAhR) and ARNT (mARNT) expression plasmids, mβAhR/pcDNA3 and mβArnt/pcDNA3, have been previously described. Point mutations of mβAhR/pcDNA3 were carried out using the QuikChange Lightning Mutagenesis Kit (Agilent Technologies) and all constructs were verified by sequencing.
[^3H]TCDD specific binding to wild-type or mutant mAhRs synthesized in vitro using the Promega TNT Quick coupled transcription/translation rabbit reticulocyte lysate kit (Madison, WI) was carried out as previously described. [^3H]TCDD specific binding was determined by subtracting the amount of [^3H]TCDD bound to unprogrammed lysate (nonspecific binding) from the total amount of [^3H]TCDD binding to lysate containing in vitro expressed AhR. The amount of [^3H]TCDD specific binding remaining in the presence of the indicated competitor chemical was expressed as a percent of the total [^3H]TCDD specific binding. The relative binding affinity (IC50) of each chemical was determined from concentration-dependent competitive inhibition curves obtained using [^3H]TCDD and increasing concentrations of each test chemical and the mean IC50 value was determined using three-parameter non-linear regression.

`Clc1cc2oc3cc(Cl)c(Cl)cc3c2cc1Cl` [TCDF, 2,3,7,8-tetrachlorodibenzofuran]: the “ligand-stimulated AhR DNA binding” value in assay [1] is given as “eliminated or greatly reduced”.
As to `Clc1ccc(-c2cc(Cl)c(Cl)c(Cl)c2)cc1Cl` [PCB126, 3,3′4,4′5-pentachlorobiphenyl], in assay [2], the “change of relative binding affinity versus wild-type AhR” value is “reduced” and the pIC50 is 8.03.
`Clc1cc2c(cc1Cl)Oc1cc(Cl)c(Cl)cc1O2` [TCDD, 2,3,7,8-tetrachlorodibenzo-p-dioxin]: the “ligand-stimulated AhR DNA binding” value in assay [1] was “eliminated or greatly reduced”.
Same read-out and setting: the result for `c1ccc2c(c1)cc1ccc3cccc4ccc2c1c34` [BaP, Benzo(a)pyrene] reads “eliminated or greatly reduced”.
Consider `c1ccc2c(c1)ccc1cc3c(ccc4ccccc43)cc12` [DBA, dibenz(a,h)anthracene], for which, in assay [2], the “change of relative binding affinity versus wild-type AhR” value is “not affected” and the pIC50 was 8.17.
For `Cc1ccc2cc3c(ccc4ccccc43)c3c2c1CC3` [3MC, 3-methylcholanthrene] the same measures were “reduced” and 6.61.
In the case of `O=Cc1c2[nH]c3ccccc3c2cc2[nH]c3ccccc3c12` [FICZ, 6-formylindolo[3,2-b]carbazole], in assay [2], the pIC50 was 10.68.
`O=c1cc(-c2ccccc2)oc2ccc3ccccc3c12` [BNF]: in assay [2], the “change of relative binding affinity versus wild-type AhR” value is “not affected” and the pIC50 was 8.02.
